Assay results reported in US20200222474A1, “COMPOSITIONS AND METHODS FOR INCREASING PHYTOCHEMICAL BIOAVAILABLITY AND BIOACTIVITY” (North Carolina State University, priority 2017, published 2020).

Columns and labels:
Type in all cases: cell-based, Lactobacillus acidophilus
NCK2424 (ΔLBA0726) = experiment: Phenotypic growth analysis of deletion mutant (phospho-β-glucosidase); conditions: compared with background Δupp strain
Experimental: (§1) Phenotypic growth assays were performed using 1% (v/v) overnight cultures of L. acidophilus strains (Table 2) and other Lactobacillus species (Table 3) grown on SDM supplemented with 1% (w/v) glucose to inoculate 200 μL of SDM supplemented with 1% (w/v) of the examined carbohydrate (0.5% in the case of esculin) in 96-well microplate wells (Corning Costar, Corning, N.Y., USA) in duplicate or triplicate wells, respectively. The microplates were sealed with clear adhesive film, incubated at 37° C. in a Fluostar Optima microplate reader (BMG Labtech, Cary, N.C., USA), and the cell optical density (OD600) was monitored for 30 hours.
Construction of gene deletion mutants. The L. acidophilus NCFM genes LBA0225 and LBA0726, both encoding P-Bgl of glycoside hydrolase family 1 (GH1) enzymes in addition to the LBA0227 and LBA0725 genes encoding an EIIC and an EIICBA components of two PTS systems, respectively, were deleted using the upp-based counterselectable gene replacement system. Briefly, in-frame deletions were constructed by amplifying 650-750 bp of the up- and downstream flanking regions of the deletion targets with two primer pairs (e.g., LBA0225A/LBA0225B and LBA0225C/LBA0225D; Table 4). The resulting purified products were joined by splicing using overlap extension PCR (SOE-PCR63) and amplified to establish the deletion alleles. The SOE-PCR products, that include flanking restriction enzyme sites, were cloned within the BamHI and SacI/EcoRI sites of the pTRK935 integration vector and transformed into E. coli EC101. […]
(§2) To establish the functional significance of these two loci, single deletions of each PTS EII and P-Bgl gene, and a double deletion of both P-Bgl genes were constructed using the upp-based counter-selectable gene replacement system (Table 2) and the growth phenotypes of the mutant strains were analyzed (FIG. 3). […]

[1] = system: NCK2426 (ΔLBA0225ΔLBA0726); experiment: Phenotypic growth analysis of double phospho-β-glucosidase mutant; conditions: compared with background Δupp strain
Experimental: as §1
Construction of gene deletion mutants. The L. acidophilus NCFM genes LBA0225 and LBA0726, both encoding P-Bgl of glycoside hydrolase family 1 (GH1) enzymes in addition to the LBA0227 and LBA0725 genes encoding an EIIC and an EIICBA components of two PTS systems, respectively, were deleted using the upp-based counterselectable gene replacement system. […]
as §2

NCK2422 (ΔLBA0725) = experiment: Phenotypic growth analysis of deletion mutant (PTS EIICBA); conditions: for growth of the ΔLBA0725 mutant (inactive PTS EIICBA): compared with background Δupp strain
Experimental: as §1
Construction of gene deletion mutants. The L. acidophilus NCFM genes LBA0225 and LBA0726, both encoding P-Bgl of glycoside hydrolase family 1 (GH1) enzymes in addition to the LBA0227 and LBA0725 genes encoding an EIIC and an EIICBA components of two PTS systems, respectively, were deleted using the upp-based counterselectable gene replacement system. Briefly, in-frame deletions were constructed by amplifying 650-750 bp of the up- and downstream flanking regions of the deletion targets with two primer pairs (e.g., LBA0225A/LBA0225B and LBA0225C/LBA0225D; Table 4). The resulting purified products were joined by splicing using overlap extension PCR (SOE-PCR63) and amplified to establish the deletion alleles. The SOE-PCR products, that include flanking restriction enzyme sites, were cloned within the BamHI and SacI/EcoRI sites of the pTRK935 integration vector and transformed into E. coli EC101. The resulting recombinant plasmids (pTRK1113-6) were confirmed by DNA sequencing and electroporated into L. acidophilus NCK1910 (Table 2) that contains the pTRK669 helper plasmid, and the recovery of the single- and double-crossover recombinants was performed as previously described. Recombinants carrying the new gene deletion alleles were isolated by colony PCR using primer pairs denoted up/down (e.g., LBA0225up/LBA0225down), which anneal to the flanking regions of the amplicons. Sequence integrity and in-frame deletions were verified by DNA sequencing employing the aforementioned primer pairs and primer denoted mid (e.g., LBA0225mid). The mutations were in-frame deletions of 90-96% of the coding regions.
To establish the functional significance of these two loci, single deletions of each PTS EII and P-Bgl gene, and a double deletion of both P-Bgl genes were constructed using the upp-based counter-selectable gene replacement system (Table 2) and the growth phenotypes of the mutant strains were analyzed (FIG. 3). Phenotypic growth analyses of deletion mutants of EII PTS transporters (FIGS. 3A, 3C, 3E, 3G, and 3I) and phospho-β-glucosidase (FIGS. 3B, 3D, 3F, 3H, and 3J) on the β-glucosides esculin, salicin, amygdalin and the disaccharides gentiobiose and cellobiose. The background Aupp strain is shown as a grey fill graph and the growth of the mutant strains is shown as: PTS EIIC (LBA0227, pink triangle), the phospho-β-glucosidase (LBA0225, light blue triangles), the PTS EIICBA (LBA0725, yellow squares), the second phospho-β-glucosidase (LBA0726, lilac squares) and the double phospho-β-glucosidase mutant (LBA0225/LBA0726, black stars). The color scheme is consistent with that used for the gene loci in FIG. 2.

L. acidophilus NCFM = experiment: Plant glycoside uptake and metabolite analysis of L. acidophilus NCFM culture supernatants by UHPLC-DAD-Q-TOF-MS; conditions: for aglycone / main metabolite identified in culture supernatant: L. acidophilus NCFM growing on the glycoside, up to 24 h; for order of depletion from equimolar mixture of salicin, esculin and amygdalin: culture supernatants, 24 hours growth; for Catabolism based on MS: qualitative: depletion of the plant glycoside and/or appearance of its metabolites
Experimental: For initial growth and gene expression studies, L. acidophilus NCFM was propagated three times in semi-defined medium (SDM) supplemented with either 1% or 0,5% (w/v) of the plant glycoside or carbohydrate (Table 1). For the RNA-seq analysis, cells were harvested by centrifugation (3,220×10 min, 25° C.) in the mid-exponential phase (OD600=0.6-0.8) and stored at −80° C. for subsequent RNA isolation. For the mass spectrometry metabolite analyses, 200 μt samples were taken at 0, 3, 6, 9, 12, and 24 hours of growth; cells were removed by centrifugation; and supernatants were stored at −80° C. for further analysis.
Analysis of plant glycoside uptake from L. acidophilus NCFM culture supernatants using mass spectrometry. The supernatants of L. acidophilus NCFM cultures grown on amygdalin, arbutin, esculin or salicin as carbon sources were analyzed during 24 hours by ultra-high performance liquid chromatography-diode array detection-quadruple time of flight mass spectrometry (UHPLC-DAD-Q-TOF-MS). Samples were diluted 1:20 (v/v) with methanol and an injection volume of […] was used. Separation was carried out on an Agilent Poroshell 120 phenyl-hexyl column (2.1×150 mm, 2.7 μm) using the Agilent Infinity 1290 UHPLC system (Agilent Technologies, Santa Clara, Calif., USA) equipped with a UV/vis spectrum diode array detector. Separation was performed at 0.35 mL min-1., 60° C. with a linear gradient consisting of water (A) and acetonitrile (B) both buffered with 20 mM formic acid, starting at 10% B and increased to 100% in 15 min where it was held for 2 min, returned to 10% in 0.1 min and kept for 3 min. MS detection was performed on an Agilent 6550 iFunnel QTOF MS equipped with Agilent Dual Jet Stream electrospray ion source with the drying gas temperature of 160° C. and gas flow of 13 L min^−1, whereas the sheath gas temperature was 300° C. and flow was 16 L min-1. Ionization was conducted in ESI-mode with capillary voltage set to 4000 V and nozzle voltage to 500 V. Mass spectra were recorded as centroid data for m/z 85-1700 in MS mode with an acquisition rate of 10 spectra s^−1. To avoid carry-over, the needle seat was back-flushed for 15 s at 4 mL min-1 with each of: i) isopropanol: 0.2% ammonium hydroxide (w/v) in water (1:1 v/v); ii) acetonitrile with 2% formic acid (w/v); iii) water with 2% formic acid. Data was processed with the Agilent Mass Hunter Qualitative Analysis B.07.00 software package (Agilent Technologies) and molar concentrations were obtained from standard curves of the plant glycosides and their main metabolites. Targeted compound searches were performed using lists of previously identified compounds plus standard chemical modifications.

Row | Compound | growth of the ΔLBA0726 mutant (P-Bgl) (NCK2424 (ΔLBA0726)) | growth of the double P-Bgl mutant (LBA0225/LBA0726) [1] | reduction of growth on inactivation of the EIICBA (LBA0725) (NCK2422 (ΔLBA0725)) | growth of the ΔLBA0725 mutant (inactive PTS EIICBA) (NCK2422 (ΔLBA0725)) | aglycone / main metabolite identified in culture supernatant (L. acidophilus NCFM) | order of depletion from equimolar mixture of salicin, esculin and amygdalin (L. acidophilus NCFM) | fraction of the initial glycoside utilized (L. acidophilus NCFM; during 24 hours growth, single carbon source) | Catabolism based on MS (L. acidophilus NCFM; growth concentration 1% (w/v)) | Catabolism based on MS (L. acidophilus NCFM; growth concentration 0.5% (w/v))
1 | N#C[C@H](O[C@@H]1O[C@H](CO[C@@H]2O[C@H](CO)[C@@H](O)[C@H](O)[C@H]2O)[C@@H](O)[C@H](O)[C@H]1O)c1ccccc1 [Amygdalin] | severe reduction in growth | abolished | about 50% | severely reduced | benzaldehyde | significant amounts of amygdalin persisted after 24 hours | about a third | Yes | 
2 | OCc1ccccc1O[C@@H]1O[C@H](CO)[C@@H](O)[C@H](O)[C@H]1O [Salicin] |  |  |  | abolished | salicyl alcohol | first compound to be fully depleted |  | Yes | 
3 | O=c1ccc2cc(O[C@@H]3O[C@H](CO)[C@@H](O)[C@H](O)[C@H]3O)c(O)cc2o1 [Esculin] |  |  |  | abolished | esculetin |  |  |  | Yes
